Common to all, as to type: cell-based, human
What all share (design): key to Personalization Category: Personalization categories range from High, Good, Moderate, Low, to None; Personalization categories range from High, Good, Moderate, Low, to None; Personalization categories range from High, Good, Moderate, Low, to None; Personalization categories range from High, Good, Moderate, Low, to None; Personalization categories range from High, Good, Moderate, Low, to None; key to Sensitivity Category: Sensitivity categories range from High, Good, Moderate, Low, to None; Sensitivity categories range from High, Good, Moderate, Low, to None; Sensitivity categories range from High, Good, Moderate, Low, to None; Sensitivity categories range from High, Good, Moderate, Low, to None; Sensitivity categories range from High, Good, Moderate, Low, to None; AUC: unit not given beside the values

Test [1] relates to patient-derived tumor organoids (PDTOs), cholangiocarcinoma. As to the kind of experiment: Endoxifen screen in PDTOs: cholangiocarcinoma. Conditions: each line one patient sample; for pIC50: four-parameter logistic fit. As for the experimental part: (§1) This example describes screening endoxifen in patient-derived tumor organoids. Endoxifen was tested as a single agent on tumor organoids derived from patients diagnosed with various cancer types using a personalized cancer treatment screening assay (PARIS© Test, SEngine Precision Medicine). The screen utilized patient-derived tumor organoids (PDTOs) along with high-throughput drug screening and machine learning-guided data analysis to quantify the efficacy of endoxifen against samples derived from individual patients diagnosed with various cancer types. PDTOs are self-organizing, three-dimensional organoid structures that recapitulate structural, functional, and genomic aspects of in vivo organs. The PDTOs were grown in culture from patient tumor biopsy samples.
(§2) Fresh patient biopsy samples received following surgery were cleaned and purified. Immune cells (e.g., lymphocytes, blood cells), cancer-associated fibroblasts, and other non-tumor cells were removed to establish pure PDTOs for endoxifen testing. The tumor organoids were grown and expanded by supplying organ- and patient-specific growth factors and nutrients. The PDTOs were treated with increasing concentrations of endoxifen ranging from about 30 nM to about 10 μM, and the drug response was measured using a luminescence readout. A lower luminescence was indicative of a stronger drug response.
(§3) The results were analyzed using a “SEngine Precision Medicine” (SPM) scoring system to assess the sensitivity and personalization of each tumor organoid to endoxifen. The SPM score correlates with clinical outcomes, such that a higher SPM score for a specific PDTO-drug combination predicts a more favorable clinical outcome following treatment of the corresponding patient with the tested drug.
(§4) This example describes testing endoxifen efficacy against 17 distinct cancer types in patient-derived tumor organoids (PDTOs). Screening of PDTOs was performed as described in EXAMPLE 1. For each PDTO sample, the drug response was measured using a luminescent readout over a range of endoxifen concentrations. The drug response was evaluated based on the area under the fitted dose response curve (AUC) and the SPM scoring system. AUC values were normalized for each PDTO. Briefly, data points at each drug concentration were first normalized to a negative control, then a dose response drug curve was approximated using a four-parameter logistic model fitted to the normalized data points. The area under the curve was calculated from the normalized curve. Normalization allowed for comparison of AUC values between patient samples. The SPM scores were based on machine learning models that incorporate values for how well the drug kill patient cells (sensitivity metric), the relative drug responses of a patient to all other patients in a sample database (personalization metric), and knowledge of clinical outcomes for patients that had been evaluated with the personalized cancer screening assay (PARIS® Test, SEngine Precision Medicine).
The SPM scoring system evaluated whether a PDTO was unresponsive or responsive to endoxifen and the degree of drug response for PDTOs that were responsive to endoxifen. The SPM scoring system generated metrics an SPM score, predictive of clinical outcome, overall drug response (response category), drug sensitivity (sensitivity category), and drug personalization (personalization category). SPM scores ranged from 1-15, corresponding to the following drug response categories: no response (SPM 1-8), low response (SPM 9), moderate response (SPM 10-11), good response (SPM 12-13), and exceptional response (SPM 14-15). […] Moderate to good drug responses (SPM 10-13) may indicate that a drug has clinical relevance, possibly in combination with other drugs. The sensitivity category was determined from the sensitivity metric and is a measure of overall cell death of a patient's cells in response to endoxifen at six concentrations. […]

For test [2], the system named is patient-derived tumor organoids (PDTOs), rectal cancer. As to the kind of experiment: Endoxifen screen in PDTOs: rectal cancer. As for the experimental part: as §1, §2, §3, §4
(§5) The SPM scoring system evaluated whether a PDTO was unresponsive or responsive to endoxifen and the degree of drug response for PDTOs that were responsive to endoxifen. […] The sensitivity category was determined from the sensitivity metric and is a measure of overall cell death of a patient's cells in response to endoxifen at six concentrations. […]

For test [3], the system named is patient-derived tumor organoids (PDTOs), thyroid cancer. Put plainly: Endoxifen screen in PDTOs: thyroid cancer. The protocol:
as §1, §2, §3, §4, §5

pIC50: −log10 of the molar value. Several values for one entry are separate records, joined by “and”; a condition that tells them apart may be missing. Equal values may be shown once. Entries after “also recorded” stand apart in the source; their conditions may differ.

A word on the pIC50: it is −log10 of the IC50, conventionally taken in molar units.

With `CC/C(=C(\c1ccc(O)cc1)c1ccc(OCCNC)cc1)c1ccccc1` [Endoxifen, 4-hydroxy-N-desmethyltamoxifen], the pIC50 in test [1] (Homo sapiens) is 5.06; in test [1], 5.04; in test [2] (Homo sapiens, Patient 19, four-parameter logistic fit), 5.41; in test [3] (Homo sapiens, patient 4, four-parameter logistic fit), 5.15. Moreover, the “Personalization Category” value in test [1] was “None and Low”; in test [2] (Patient 19), “Low”; in test [3] (patient 4), “None”. Also, the “Response Category” value in test [1] is listed as “None (no response (SPM 1-8)); also recorded: Low (low response (SPM 9))”. For the same compound, the “Sensitivity Category” value in test [1] was “None and Low”; in test [2] (Patient 19), “Low”; in test [3] (patient 4), “None”. Besides, the AUC in test [1] (normalized area under fitted dose response curve) is 0.9497 and 0.9011 and 0.9669; in test [2] (Patient 19, normalized area under fitted dose response curve), 0.8614; in test [3] (patient 4, normalized area under fitted dose response curve), 0.9109. Besides, the “SPM Score” value is 1 and 9 and 3 in test [1] (score range 1-15); 9 in test [2] (Patient 19, score range 1-15); 1 in test [3] (patient 4, score range 1-15).

(Values after US20250041245A1, “ENDOXIFEN FOR TREATMENT OF CANCERS” (Atossa Therapeutics, Inc., priority 2021, published 2025).)
